Converted amounts (≈) assume the structure as drawn. Like-named read-outs stand apart in the source and are kept apart here.
Legend:
[1] = system: clinical isolates of Mycobacterium tuberculosis; assay: microbe, parasite or virus in culture; type: cell-based; settings: for MIC: Mycobacterium tuberculosis
[2] = system: Mycobacterium tuberculosis H37Rv (ATCC 27294); type: cell-based; settings: for Log reduction in CFU: vs drug-free control
[3] = system: M. tuberculosis Erdman pFCA LuxAB; settings: for reduction compared to the vehicle group: conjugate 100, rifampicin 10, metronidazole 200 mg/kg; for Log reduction compared to untreated group / Log10 CFU counts in the lungs, Average: QD for 12 days; for Log reduction compared to untreated group / Log10 CFU counts in the lungs, Mouse A / Log10 CFU counts in the lungs, Mouse B / Log10 CFU counts in the lungs, Mouse C / Log10 CFU counts in the lungs, Mouse D / Log10 CFU counts in the lungs, Mouse E / Log10 CFU counts in the lungs, Mouse F / Log10 CFU counts in the lungs, Average: conjugate 100, linezolid 100, PA-824 50, rifampicin 10, metronidazole 200 mg/kg; for Log10 CFU counts in the lungs, Mouse A / Log10 CFU counts in the lungs, Mouse B / Log10 CFU counts in the lungs, Mouse C / Log10 CFU counts in the lungs, Mouse D / Log10 CFU counts in the lungs, Mouse E / Log10 CFU counts in the lungs, Mouse F / Log10 CFU counts in the lungs, Average: day 21; for Log10 CFU counts in the lungs, Mouse A / Log10 CFU counts in the lungs, Mouse B / Log10 CFU counts in the lungs, Mouse C / Log10 CFU counts in the lungs, Mouse D / Log10 CFU counts in the lungs, Mouse E / Log10 CFU counts in the lungs, Mouse F: QD for 12 days from day 7; for Log10 CFU counts in the lungs, Average: group average, 6 mice
[4] = 168 h, clinical isolate strain 1, air with 5% CO2, 7H9/10% OADC, 7 days
[5] = 168 h, clinical isolate strain 2, air with 5% CO2, 7H9/10% OADC, 7 days
[6] = 168 h, clinical isolate strain 3, air with 5% CO2, 7H9/10% OADC, 7 days
[7] = 168 h, clinical isolate strain 4, air with 5% CO2, 7H9/10% OADC, 7 days
[8] = 168 h, clinical isolate strain 5, air with 5% CO2, 7H9/10% OADC, 7 days
[9] = 168 h, clinical isolate strain 6, air with 5% CO2, 7H9/10% OADC, 7 days
[10] = 168 h, clinical isolate strain 7, air with 5% CO2, 7H9/10% OADC, 7 days
[11] = 168 h, clinical isolate strain 8, air with 5% CO2, 7H9/10% OADC, 7 days
[12] = 168 h, clinical isolate strain 9, air with 5% CO2, 7H9/10% OADC, 7 days
[13] = 168 h, clinical isolate strain 10, air with 5% CO2, 7H9/10% OADC, 7 days
[14] = 168 h, clinical isolate strain 11 (sensitive strain), air with 5% CO2, 7H9/10% OADC, 7 days
[15] = read-out: MIC values against sensitive tuberculosis strains, sensitive tuberculosis strains, air containing 5% CO2

CO[C@H]1/C=C/O[C@@]2(C)Oc3c(C)c(O)c4c(O)c(c(/C=N/N5CCN(C)CC5)c(O)c4c3C2=O)NC(=O)/C(C)=C\C=C\[C@H](C)[C@H](O)[C@@H](C)[C@@H](O)[C@@H](C)[C@H](OC(C)=O)[C@@H]1C [Rifampicin, rifampicin]
MIC [1, 4]: > 40 µg/mL | MIC [1, 5]: 5 µg/mL (≈ 6.08 µM) | MIC [1, 6]: > 40 µg/mL | MIC [1, 7]: > 40 µg/mL | MIC [1, 8]: > 40 µg/mL | MIC [1, 9]: > 40 µg/mL | MIC [1, 10]: > 40 µg/mL | MIC [1, 11]: > 40 µg/mL | MIC [1, 12]: 20 µg/mL (≈ 24.3 µM) | MIC [1, 13]: 40 µg/mL (≈ 48.6 µM) | MIC [1, 14]: 0.039 µg/mL (≈ 0.0474 µM) | MIC [1, 15]: 0.039 µg/mL (≈ 0.0474 µM) | CFU/mL ([2]; concentration 5 μg/mL): 2.19E+07 CFU/mL | Log reduction in CFU ([2]; concentration 5 μg/mL): 1.04 | CFU/mL ([2]; concentration 20 μg/mL): 1.23E+07 CFU/mL | Log reduction in CFU ([2]; concentration 20 μg/mL): 1.29 | reduction compared to the vehicle group ([3]; […], 12 consecutive days): 0.65 log CFU | Log reduction compared to untreated group ([3]; […]): 0.58 | Log10 CFU counts in the lungs, Mouse A [3]: 6.29 Log10 CFU | Log10 CFU counts in the lungs, Mouse B [3]: 6.55 Log10 CFU | Log10 CFU counts in the lungs, Mouse C [3]: 6.66 Log10 CFU | Log10 CFU counts in the lungs, Mouse D [3]: 6.24 Log10 CFU | Log10 CFU counts in the lungs, Mouse E [3]: 5.52 Log10 CFU | Log10 CFU counts in the lungs, Mouse F [3]: 6.46 Log10 CFU | Log10 CFU counts in the lungs, Average [3]: 6.29 Log10 CFU

NNC(=O)c1ccncc1 [Isoniazid, isoniazid]
MIC [1, 4]: > 40 µg/mL | MIC [1, 5]: 2.5 µg/mL (≈ 18.2 µM) | MIC [1, 6]: 10 µg/mL (≈ 72.9 µM) | MIC [1, 7]: > 40 µg/mL | MIC [1, 8]: 5 µg/mL (≈ 36.5 µM) | MIC [1, 9]: 0.313 µg/mL (≈ 2.28 µM) | MIC [1, 10]: 5 µg/mL (≈ 36.5 µM) | MIC [1, 11]: 2.5 µg/mL (≈ 18.2 µM) | MIC [1, 12]: > 40 µg/mL | MIC [1, 13]: > 40 µg/mL | MIC [1, 14]: 0.039 µg/mL (≈ 0.284 µM) | MIC [1, 15]: 0.039 µg/mL (≈ 0.284 µM) | CFU/mL ([2]; concentration 10 μg/mL): 3.14E+08 CFU/mL | Log reduction in CFU ([2]; concentration 10 μg/mL): −0.12

CC(=O)NC[C@H]1CN(c2ccc(N3CCOCC3)c(F)c2)C(=O)O1 [linezolid]
Log reduction compared to untreated group ([3]; […]): 1.57 | Log10 CFU counts in the lungs, Mouse A [3]: 5.86 Log10 CFU | Log10 CFU counts in the lungs, Mouse B [3]: 4.61 Log10 CFU | Log10 CFU counts in the lungs, Mouse C [3]: 5.76 Log10 CFU | Log10 CFU counts in the lungs, Mouse D [3]: 4.59 Log10 CFU | Log10 CFU counts in the lungs, Mouse E [3]: 5.13 Log10 CFU | Log10 CFU counts in the lungs, Average [3]: 5.30 Log10 CFU

CO[C@H]1/C=C/O[C@@]2(C)Oc3c(C)c(O)c4c(c3C2=O)C2=NC3(CCN(CCn5c([N+](=O)[O-])cnc5C)CC3)NC2=C(NC(=O)/C(C)=C\C=C\[C@H](C)[C@H](O)[C@@H](C)[C@@H](O)[C@@H](C)[C@H](OC(C)=O)[C@@H]1C)C4=O
MIC [1, 4]: 2 µg/mL (≈ 2.12 µM) | MIC [1, 5]: 0.5 µg/mL (≈ 0.53 µM) | MIC [1, 6]: 2 µg/mL (≈ 2.12 µM) | MIC [1, 7]: 2 µg/mL (≈ 2.12 µM) | MIC [1, 8]: 2 µg/mL (≈ 2.12 µM) | MIC [1, 9]: 1 µg/mL (≈ 1.06 µM) | MIC [1, 10]: 2 µg/mL (≈ 2.12 µM) | MIC [1, 11]: 2 µg/mL (≈ 2.12 µM) | MIC [1, 12]: 0.5 µg/mL (≈ 0.53 µM) | MIC [1, 13]: 1 µg/mL (≈ 1.06 µM) | MIC [1, 14]: 0.016 µg/mL (≈ 0.0169 µM) | MIC [1, 15]: 0.016 µg/mL (≈ 0.0169 µM) | reduction of bacterial count of wild-type Mycobacterium Tuberculosis compared to the drug-free group ([2]; at both tested concentrations (20 μg/mL and 5 μg/mL)): > 4 Log10 CFU | CFU/mL ([2]; concentration 5 μg/mL): 9.75E+03 CFU/mL | Log reduction in CFU ([2]; concentration 5 μg/mL): 4.39 | CFU/mL ([2]; concentration 20 μg/mL): 2.50E+03 CFU/mL | Log reduction in CFU ([2]; concentration 20 μg/mL): 4.98 | reduction compared to the pre-treatment ([3]; […], 100 mg/kg orally QD, 12 consecutive days): 0.69 log CFU | reduction compared to the vehicle group ([3]; […], 12 consecutive days): 4 log CFU | Log reduction compared to untreated group ([3]; […]): 4.18 | activity compared to vehicle, rifampicin, metronidazole, linezolid and PA-824 control groups ([3]; […], one-way ANOVA, 95% level of confidence): significantly superior | Log10 CFU counts in the lungs, Mouse A [3]: 2.48 Log10 CFU | Log10 CFU counts in the lungs, Mouse B [3]: 2.18 Log10 CFU | Log10 CFU counts in the lungs, Mouse C [3]: 3.02 Log10 CFU | Log10 CFU counts in the lungs, Mouse D [3]: 2.48 Log10 CFU | Log10 CFU counts in the lungs, Mouse E [3]: 3.80 Log10 CFU | Log10 CFU counts in the lungs, Mouse F [3]: 2.18 Log10 CFU | Log10 CFU counts in the lungs, Average [3]: 2.69 Log10 CFU | drug-related tolerance issues ([3]; mice, after 12 consecutive days of administration, 100 mg/kg QD): no drug-related tolerance issues were observed

CO[C@H]1/C=C/O[C@@]2(C)Oc3c(C)c(O)c4c(c3C2=O)C2=NC3(CCN(CC(C)C)CC3)NC2=C(NC(=O)/C(C)=C\C=C\[C@H](C)[C@H](O)[C@@H](C)[C@@H](O)[C@@H](C)[C@H](OC(C)=O)[C@@H]1C)C4=O [Rifabutin, rifabutin]
CFU/mL ([2]; concentration 5 μg/mL): 9.77E+07 CFU/mL | Log reduction in CFU ([2]; concentration 5 μg/mL): 0.39 | CFU/mL ([2]; concentration 20 μg/mL): 7.19E+06 CFU/mL | Log reduction in CFU ([2]; concentration 20 μg/mL): 1.52

O=[N+]([O-])c1cn2c(n1)OC[C@@H](OCc1ccc(OC(F)(F)F)cc1)C2 [PA-824]
Log reduction compared to untreated group ([3]; […]): 3.04 | Log10 CFU counts in the lungs, Mouse A [3]: 3.29 Log10 CFU | Log10 CFU counts in the lungs, Mouse B [3]: 4.00 Log10 CFU | Log10 CFU counts in the lungs, Mouse C [3]: 4.06 Log10 CFU | Log10 CFU counts in the lungs, Mouse D [3]: 3.65 Log10 CFU | Log10 CFU counts in the lungs, Mouse E [3]: 4.01 Log10 CFU | Log10 CFU counts in the lungs, Mouse F [3]: 3.97 Log10 CFU | Log10 CFU counts in the lungs, Average [3]: 3.83 Log10 CFU

Cc1ncc([N+](=O)[O-])n1CCO [Metronidazole, metronidazole]
MIC [1, 4]: > 32 µg/mL | MIC [1, 5]: > 32 µg/mL | MIC [1, 6]: > 32 µg/mL | MIC [1, 7]: > 32 µg/mL | MIC [1, 8]: > 32 µg/mL | MIC [1, 9]: > 32 µg/mL | MIC [1, 10]: > 32 µg/mL | MIC [1, 11]: > 32 µg/mL | MIC [1, 12]: > 32 µg/mL | MIC [1, 13]: > 32 µg/mL | MIC [1, 14]: > 32 µg/mL | activity against the tested strains ([1]; all tested strains, air containing 5% CO2): no activity | CFU/mL ([2]; concentration 20 μg/mL): 1.66E+08 CFU/mL | Log reduction in CFU ([2]; concentration 20 μg/mL): 0.16 | CFU/mL ([2]; concentration 50 μg/mL): 1.02E+08 CFU/mL | Log reduction in CFU ([2]; concentration 50 μg/mL): 0.37 | reduction compared to the vehicle group ([3]; […], 12 consecutive days): 0.09 log CFU | Log reduction compared to untreated group ([3]; […]): 0.02 | Log10 CFU counts in the lungs, Mouse A [3]: 6.95 Log10 CFU | Log10 CFU counts in the lungs, Mouse B [3]: 6.95 Log10 CFU | Log10 CFU counts in the lungs, Mouse C [3]: 6.15 Log10 CFU | Log10 CFU counts in the lungs, Mouse D [3]: 6.60 Log10 CFU | Log10 CFU counts in the lungs, Mouse E [3]: 7.11 Log10 CFU | Log10 CFU counts in the lungs, Mouse F [3]: 7.31 Log10 CFU | Log10 CFU counts in the lungs, Average [3]: 6.85 Log10 CFU

CO[C@H]1/C=C/O[C@@]2(C)Oc3c(C)c(O)c4c(O)c(c(/C=N/N5CCN(C6CCCC6)CC5)c(O)c4c3C2=O)NC(=O)/C(C)=C\C=C\[C@H](C)[C@H](O)[C@@H](C)[C@@H](O)[C@@H](C)[C@H](OC(C)=O)[C@@H]1C [Rifapentine, rifapentine]
CFU/mL ([2]; concentration 5 μg/mL): 1.80E+07 CFU/mL | Log reduction in CFU ([2]; concentration 5 μg/mL): 1.12 | CFU/mL ([2]; concentration 20 μg/mL): 1.91E+07 CFU/mL | Log reduction in CFU ([2]; concentration 20 μg/mL): 1.1

Source: US20260191965A1 (priority 2022, published 2026)
